The subject of assay [1] is MDA-MB-468 cells. The experiment in a line: MTT cell viability assay. The assay is classed as cell-based. On the procedure: MTT cell viability was evaluated using MTT (3-(4,5-dimethylthiazol-2-yl)-2,5-diphenyltetrazolium bromide) assays carried out based on the manufacturer's instructions (kit CGD1, Sigma-Aldrich, St. Louis, MO).
Cell viability assays were performed in MDA-MB-468 (FIG. 8) and BT474 (FIG. 9) cell lines in the presence of increasing concentrations of tcyDTDO and/or TRAIL using the MTT method. The results were analyzed using the Chou-Talalay method [T. C. Chou, P. Talalay, Generalized equations for the analysis of inhibitions of Michaelis-Menten and higher-order kinetic systems with two or more mutually exclusive and nonexclusive inhibitors, Eur J Biochem, 115 (1981) 207-216; T. C. Chou, P. Talalay, Quantitative analysis of dose-effect relationships: the combined effects of multiple drugs or enzyme inhibitors, Adv Enzyme Regul, 22 (1984) 27-55.] to calculate combination indices (Cis) where CI<1 denotes synergy, CI=1 denotes additivity, and C I>1 denotes antagonism.
(§1) Cell viability (FIG. 12), proliferation (FIG. 13), and protein synthesis (FIG. 14) assays were performed in MDA-MB-468 cell line in the presence of increasing concentrations of tcyDTDO or DMtcyDTDO.

A further assay deals with MDA-MB-468 cell line. The experiment in a line: Cell proliferation assay. The format is cell-based. The note with it: 24 treatment, FIG. 13. How it is done: as §1
Assay [2] concerns MDA-MB-468 cells. The experiment in a line: Protein synthesis assay. The assay is classed as cell-based. On the procedure: FIG. 11. depicts the inhibition of global protein synthesis upon treatment of MDA-MB-468 cells with tcyDTDO.
as §1
(§2) Thus, without being bound by any particular theory, it is speculated that compounds of Formula (I)-(VI) regulate DR5 steady-state protein levels in addition to the observed transcriptional induction.

Assay [3] deals with EGFR, DR4, and DR5 in MDA-MB-468 breast cancer cells. The assay can be described thus: Immunoblot of cell extracts prepared under non-reducing conditions. The assay is classed as cell-based. The note with it: 24 h, FIG. 16. On the procedure: MDA-MB-468 breast cancer cells were treated for 24 h with the indicated concentrations of DMtcyDTDO and cells were analyzed by immunoblot. Cell extracts were prepared under non-reducing conditions in the presence of 100 mM N-ethylmaleimide to preserve disulfide bonding patterns (FIG. 16). […] The oligomerized forms of DR4 and DR5 represent the activated form of these receptors.

Assay [4] relates to MDA-MB-468 cells. The experiment in a line: Immunoblot assays. The assay is classed as cell-based. The note with it: for PARP cleavage: MDA-MB-468, single agent, FIG. 15; for responsiveness of the cell line to treatment: MDA-MB-468 TNBC line.
The subject of assay [5] is DR5Long in MDA-MB-468 cell line. The assay is classed as cell-based. The text has this: A MDA-MB-468 cell line was engineered to stably express the long form of DR5 (DR5Long) in a tetracycline-inducible manner in order to separate DR5A effects on DR5 protein stability from transcriptional activation.
The subject of assay [6] is protein thiolates of MDA-MB-468 cell lysates. The assay can be described thus: Protein thiolate reactivity assay (BGPD labeling of cell lysates). The assay is classed as biochemical. The note with it: MDA-MB-468 cell lysates treated with compound in molar excess, then BGPD; FIG. 2. On the procedure: To assess tcyDTDO reactivity with protein thiolates, MDA-MB-468 cell lysates were treated with various compounds in sufficient molar excess to block all protein thiolates. A non-selective thiol-reactive biotinylated analog (BGPD, FIG. 2) was then added to quantify free thiolates remaining after the pre-labeling.

The subject of assay [7] is DR5 transcription in HEK293 cells. The experiment in a line: DR5 transcriptional reporter construct. The format is cell-based. The note with it: 5 μM; FIG. 10.
Text: FIG. 10. depicts increases in DR5 transcription by tcyDTDO in HEK293 cells as measured using a transcriptional reporter construct.
as §2

The subject of a further assay is BT474 cells. The experiment in a line: Immunoblot assays. The format is cell-based. The note with it: BT474 cancer line.
A further assay concerns DR5 in MDA-MB-468 cells. The experiment in a line: DR5 oligomerization immunoblot. The format is cell-based. The note with it: FIGS. 6 and 7. The text has this: Oligomerization of DR5 was also investigated in MDA-MB-468 cells as shown in FIG. 6 and FIG. 7, which is a magnification of the DR5Long/DR5Short portion of the immunoblot in FIG. 6.

Here are results for eight compounds from patent publication US12030864B2, “Small molecule anticancer agents, combinations and uses thereof” (priority 2018, dated 2024).

Read-outs that look alike come from different tables or passages of the source.

In the case of `CO[C@H]1C[C@@H]2CS(=O)(=O)SC[C@H]2C[C@@H]1OC` (racemic) [DMtcyDTDO, (4aS,6S,7S,8aS)- and (4aR,6R,7R,8aR)-6,7-Dimethoxyoctahydrobenzo[d][1,2]dithiine 2,2-dioxide], the “effect on cell viability compared to equal doses of tcyDTDO” value with MDA-MB-468 cells [1] (MDA-MB-468, 24 treatment, FIG. 12) is listed as “significantly greater effect”. For the same compound, the “effect on proliferation compared to equal doses of tcyDTDO” value in the assay with MDA-MB-468 cell line was “significantly greater effect”. Also, the “effect on protein synthesis compared to equal doses of tcyDTDO” value in the assay on MDA-MB-468 cells [2] (24 treatment, FIG. 14) is on record as “significantly greater effect”. Moreover, the “oligomerization of EGFR, DR4, and DR5” value in assay [3] (100 mM N-ethylmaleimide) is “induces oligomerization of EGFR, DR4, and DR5”. In assay [3], the DR5 level entry is “upregulates DR5”. In the assay on MDA-MB-468 cells [4], the PARP cleavage entry is listed as “induce PARP cleavage” and the “responsiveness of the cell line to treatment” value (“responsiveness” for short) was “highly responsive”.

On to `O[C@H](CS)[C@H](O)CS` (racemic) [Dithiothreitol (DTT), Dithiothreitol], for which, in assay [5] (reducing conditions, FIG. 5), the “doxycycline-mediated increase in DR5Long” value was “did not mimic the effects of tcyDTDO”.

Consider `CCN1C(=O)C=CC1=O` [N-ethylmaleimide (NEM), N-ethylmaleimide, reference compound], for which the “BGPD labeling of free thiolates remaining after pre-labeling” value in assay [6] is listed as “prevented BGPD labeling”.

`CC(C)[C@H](NC(=O)c1ccc2ccccc2n1)C(=O)N[C@@H](CC(=O)O)C(=O)COc1c(F)cccc1F` [Q-VD-OPH, reference compound]: the “effect on tcyDTDO/TRAIL downregulation of EGFR, Akt, phospho-Akt, PDK1” value with MDA-MB-468 cells [4] (MDA-MB-468 cells) is “partially reverses”. Besides, the “effect on tcyDTDO-mediated upregulation of DR5 or the ER stress response” value in the assay with MDA-MB-468 cells [4] (caspase inhibitor added) is “does not alter”. Besides, in the assay with MDA-MB-468 cells [4] (caspase inhibitor added, FIGS. 3, 4), the “effect on PARP cleavage induced by tcyDTDO/TRAIL” value is listed as “blocked”.

In the case of `C/C=C(/C)C(=O)O[C@H]1C(C)=C2[C@H]([C@@H]1OC(=O)CCCCCCC)[C@@](C)(OC(C)=O)C[C@H](OC(=O)CCC)[C@@]1(O)[C@H]2OC(=O)[C@@]1(C)O` [Thapsigargin], the “doxycycline-mediated increase in DR5Long” value in assay [5] (reducing conditions, FIG. 5) is listed as “did not mimic the effects of tcyDTDO”.

Take `O=S1(=O)CC2CCCCC2CS1` (stereo not shown) [tcyDTDO]: in the assay with MDA-MB-468 cells [1] (MTT, FIG. 1, compared with the other compounds profiled), the “potency in reducing cancer cell viability” value is reported as “most potent compound identified so far”. Further, in assay [7], the DR5 transcription result is “increased DR5 transcription”. Moreover, the “responsiveness” value with BT474 cells is listed as “highly responsive”. In addition, the inhibition at 5 µM in the assay on MDA-MB-468 cells [2] (Homo sapiens, 5 μM, FIG. 11, read-out: inhibition of global protein synthesis) is greater than 95%. Also, the “doxycycline-mediated increase in DR5Long” value in [5] (reducing conditions, FIG. 5) is given as “enhanced”. Further, the “DR5 dimerization and oligomerization” value with DR5 in MDA-MB-468 cells is “increase in DR5 dimerization and oligomerization”. Moreover, in [6], the “BGPD labeling of free thiolates remaining after pre-labeling” value is given as “did not reduce BGPD labeling”. Besides, in the assay on MDA-MB-468 cells [4], the PARP cleavage entry is “induce PARP cleavage” and the “responsiveness” value was “highly responsive”. Also, in the assay on MDA-MB-468 cells [4] (immunoblot), the DR5 expression entry is on record as “increased DR5 expression”.

On to Cyclosporine A [Cyclosporine A (CsA)], for which the “doxycycline-mediated increase in DR5Long” value in [5] is recorded as “did not mimic the effects of tcyDTDO”.

Take Tunicamycin: the “doxycycline-mediated increase in DR5Long” value in assay [5] (reducing conditions, FIG. 5) is recorded as “did not mimic the effects of tcyDTDO”.
